Publication PMC8897147 (Acta Pharmaceutica Sinica. B, 2021)

Experiments:
Settings in all cases: COS-7
[1] = target: CLR (Homo sapiens, UniProt Q16602); experiment: cAMP accumulation
[2] = target: T1, CLR/RAMP3 (Homo sapiens, UniProt O60896+Q16602); experiment: β-Arrestin1 recruitment
[3] = target: T1, CLR/RAMP3; experiment: β-Arrestin2 recruitment

T1 sequence (Q16602 23-461): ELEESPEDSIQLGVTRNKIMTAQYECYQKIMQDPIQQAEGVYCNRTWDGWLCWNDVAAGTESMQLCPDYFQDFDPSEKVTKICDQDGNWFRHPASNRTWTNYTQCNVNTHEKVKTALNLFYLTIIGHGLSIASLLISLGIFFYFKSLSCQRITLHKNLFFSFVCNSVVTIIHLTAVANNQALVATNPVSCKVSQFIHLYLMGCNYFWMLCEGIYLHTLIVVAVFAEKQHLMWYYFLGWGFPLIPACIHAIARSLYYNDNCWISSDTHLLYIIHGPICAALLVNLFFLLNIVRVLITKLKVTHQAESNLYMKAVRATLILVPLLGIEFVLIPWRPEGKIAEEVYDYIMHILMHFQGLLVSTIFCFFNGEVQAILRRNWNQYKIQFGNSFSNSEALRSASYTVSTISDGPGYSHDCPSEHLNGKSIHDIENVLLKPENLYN
T1 sequence (O60896 24-148): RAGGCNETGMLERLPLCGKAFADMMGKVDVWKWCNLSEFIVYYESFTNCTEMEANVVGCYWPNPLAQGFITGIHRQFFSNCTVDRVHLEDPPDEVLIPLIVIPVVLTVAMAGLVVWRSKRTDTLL
CLR, sequence (Q16602 23-461): as the sequence (Q16602 23-461) above

Emax [1]: 46.3 ± 2.9%
Emax [2]: 17.9 ± 11.7%
Emax [3]: 58.4 ± 10.9%
SMILES: CC[C@H](C)[C@H](NC(=O)[C@H](CCC(N)=O)NC(=O)[C@H](Cc1c[nH]cn1)NC(=O)[C@H](C)NC(=O)[C@H](CC(C)C)NC(=O)[C@H](CCCCN)NC(=O)[C@H](CCC(N)=O)NC(=O)[C@@H](NC(=O)[C@@H](NC(=O)[C@@H]1CSSC[C@H](NC(=O)CNC(=O)[C@H](Cc2ccccc2)NC(=O)[C@H](CO)NC(=O)[C@H](CCCNC(=N)N)NC(=O)[C@H](CC(C)C)NC(=O)CNC(=O)[C@H](CCC(N)=O)NC(=O)[C@H](Cc2ccccc2)NC(=O)[C@H](CC(N)=O)NC(=O)[C@H](CC(N)=O)NC(=O)[C@H](CCSC)NC(=O)[C@H](CO)NC(=O)[C@H](CCC(N)=O)NC(=O)[C@H](CCCNC(=N)N)NC(=O)[C@@H](N)Cc2ccc(O)cc2)C(=O)N[C@@H](CCCNC(=N)N)C(=O)N[C@@H](Cc2ccccc2)C(=O)NCC(=O)N[C@@H]([C@@H](C)O)C(=O)N1)[C@@H](C)O)C(C)C)C(=O)N[C@@H](Cc1ccc(O)cc1)C(=O)N[C@@H](CCC(N)=O)C(=O)N[C@@H](Cc1ccccc1)C(=O)N[C@H](C(=O)N[C@@H](CC(=O)O)C(=O)N[C@@H](CCCCN)C(=O)N[C@@H](CC(=O)O)C(=O)N[C@@H](CCCCN)C(=O)N[C@@H](CC(=O)O)C(=O)N[C@@H](CC(N)=O)C(=O)N[C@H](C(=O)N[C@@H](C)C(=O)N1CCC[C@H]1C(=O)N[C@@H](CCCNC(=N)N)C(=O)N[C@@H](CO)C(=O)N[C@@H](CCCCN)C(=O)N[C@H](C(=O)N[C@@H](CO)C(=O)N1CCC[C@H]1C(=O)N[C@@H](CCC(N)=O)C(=O)NCC(=O)N[C@@H](Cc1ccc(O)cc1)C(N)=O)[C@@H](C)CC)C(C)C)[C@@H](C)O [Adrenomedullin, adrenomedullin]
